In US20220142991A1, “METHODS AND COMPOSITIONS FOR TREATMENT OF L YSOSOMAL STORAGE DISORDER” (CHILDREN'S HOSPITAL MEDICAL CENTER, priority 2019, published 2022):

Legend:
4L;C* mice [1] = experiment: FACS analysis of microglia and leukocyte populations in brain; type: in vivo, mouse; details: brain hemispheres
Excerpt: Brain inflammation invariably results in a reshaping of the blood-borne leukocyte populations inhabiting the CNS. To elucidate the changes of resident immune cells (i.e., microglial cells) and infiltrated leukocytes in nGD brain and the effect rapamycin has on activation of immune cells and infiltration, flow cytometry was used to analyze different leukocyte populations in brain parenchyma, including CD45^+ cells, microglia, myeloid, lymphoid, macrophage and T cells. […] The hemispheres of the brain were separated, minced, and digested by incubation with […] collagenase IV for 30 min at 37° C. The resulting cell suspensions were then fractionated by density gradient separation using 25% Percoll® gradients at 520×g for 20 minutes. […] After removing myelin and top suspension layer, pelleted cells collected were then subjected to multicolor (5) fluorescence-activated cell sorting analysis (FACS) by co-staining with multiple antibodies that conjugated with various fluorochromes to identify microglia and subpopulations of leukocytes. FIG. 10A. […] FIG. 10B. […] FIG. 10B. […] FIG. 10B.
The frequency of microglia (CD45^intermediateCD11b^high) was increased in buffer-treated 4L;C* mice (1.9 fold) and decreased in rapamycin-treated 4L;C* mice (1.3-fold), which indicates reduced microgliosis in nGD brain. FIG. 10B. […] FIGS. 10C and 10D.

4L;C* mice [2] = experiment: Relative bodyweight in 4L;C* nGD mouse model; details: 6 mg/kg i.p. every 2 days, bodyweight normalized to age 30 days, untreated/buffer Day 52
Method: To assess the effect of rapamycin on nGD, rapamycin (6 mg/kg) was administered to 4L;C* mice by intraperitoneal (i.p.) injection every 2 days starting from 2-weeks of age (4L;C* rapa). […] The lifespan of the mice was monitored daily from 40 days of age until 90 days of age or until death. The Kaplan-Meier method was used to estimate survival probability and a log-rank test was used to compare the Kaplan-Meier survival curves of the four different experimental groups.
Additionally, the bodyweight the mice was measured daily from 20 days of age until 90 days of age or until death. Relative bodyweight curves were normalized by weight value of each animal at the age of 30 days.

inflammatory mediators = experiment: RT-qPCR of inflammatory mediator mRNA in midbrain tissue; type: in vivo, mouse
Method: Vitner et al., (2012) Brain. 135 (Pt 6):1724-35; Dasgupta et al., (2015) Hum Mol Genet. 15; 24(24):7031-48. The highly activated microglia/and astrocyte are the main source of multiple inflammatory mediators in brain. […] The isolated mRNA was subjected to quantitative reverse transcription PCR (RT-qPCR) analysis using oligos directed toward inflammatory mediator genes of interest, including cytokine, chemokine, and inflammation-related receptors. Specifically, RT-qPCR analysis was performed to detect mRNA expression levels of the following genes: tumor necrosis factor (TNF)-alpha, interleukin (IL)-1-beta (IL-1β), IL-6, IL-17A, transforming growth factor beta (TGF-β), chemokine ligand (CCL) 5 (CCL5), CCL2, CCL22 chemokine (C-X-C motif) ligand 2 (CXCL2), intercellular adhesion molecule 1 (ICAM1), tumor necrosis factor receptor 1 (TNFR1), Cluster of Differentiation 86 (CD86), EGF-like module-containing mucin-like hormone receptor-like 1 (F4/80), component 5 (C5), and complement component 5a receptor 1 (C5AR1).

4L;C* nBMT mice = experiment: FACS analysis of donor-derived GFP+ migrated cells in brain after nBMT; type: in vivo, mouse; details: 55 days of age
Method: Briefly, mice that express enhanced green fluorescent protein (GFP; C57BL/6 GFP/CD45.1) were used as bone marrow donors. Low-density bone marrow (LDBM) cells were harvested by flushing the hind-leg bones with Dulbecco's modified Eagle's medium (DMEM) containing 2% fetal calf serum (FCS) and 50 U penicillin/0.05 mg/mL streptomycin using a 23 G needle. The cells were passed through a 100 μm cell strainer. LDBM cells were isolated after density gradient centrifugation with Histopaque-1083. Viable cells were counted with trypan blue dye and resuspended in PBS containing 30 U/mL heparin. The recipient pups (˜3 days old of 4L;C or 4L;norm) were subjected to myelosuppressive conditioning with the chemotherapeutic agent busulfan by intraperitoneal injection at 20 mg/kg. Twenty-four hours later, the 4L;C and 4L;norm recipient pups then received about 1×10^6 GPF+ donor cells via injection into super-facial temple vein (nBMT). 4L;C nBMT mice were then given an i.p. injection of rapamycin or buffer every other days starting at 21 days of age. […] Multicolor FACS analysis was conducted as described above to analyze contribution of GFP+ migrated cells in microglia and subpopulations of leukocytes. FIG. 11A. The frequency of donor-derived GFP+ cells among different leukocyte populations in brain parenchyma was quantified, including CD45^+ cells, microglia, myeloid, lymphoid, macrophage and T cells. Table 1. In busulfan-conditioned mice, engraftment of GFP+ microglial cells was increased in 4L;C* mice compared to 4L normal mice, regardless of treatment with buffer or rapamycin. Table 1. […] FIG. 11B.

4L;C* mice [3] = experiment: GFAP immunohistochemistry for activated astrocytes in brain; details: middle brain, brain stem, Day 55
Method: To visualize reactive astrocytes in nGD mice, immunohistochemistry (IHC) was performed. In brief, brains were harvested from well-perfused rapamycin treated 4L;C* mice, buffer-treated 4L;C* mice, and 4L normal mice at age of Day 55. Sagittal brain cryosections (8 um) were mounted on gelatin-coated slides, air-dried, and subjected to IHC staining using the BenchMark XT IHC/ISH staining module. For GFAP staining, the sections were incubated in buffer solution containing 0.1% trypsin for 5 minutes at room temperature. For morphometric analysis, hematoxylin-eosin co-staining was performed according to standard protocols. Endogenous peroxidase activity was quenched by incubation of the sections for 5 minutes with 3% hydrogen peroxide. Sections were incubated overnight at 4° C. in primary antibodies for GFAP rabbit polyclonal antibody. Staining was detected using biotin-labeled anti-rabbit secondary antibodies and streptavidin conjugated to horseradish peroxidase. Sections were examined with microscope using computer-assisted image analysis software.

4L;C* mice [4] = experiment: CD68 immunohistochemistry for activated microglia/macrophage in brain and spinal cord; type: in vivo, mouse
Excerpt: CD68, a classic marker of activated microglia/macrophage (Korzhevskii et al., (2016) Neurosci Behav Physi 46, 284-290), was used to determine CNS inflammation by immunohistochemistry staining. […] FIG. 6A.

4L;C* mice [5] = experiment: Fluoro-Jade C (FJC) staining for degenerating neurons in brain cryosections; details: most brain regions, Day 55, vs buffer-treated 4L;C*
Method: To visualize degenerative neurons in nGD mice, brains were harvested from well-perfused rapamycin treated 4L;C* mice, buffer-treated 4L;C* mice, and 4L normal, untreated mice at age of Day 55. Sagittal brain cryosections (10 μm) were mounted on gelatin-coated slides, air-dried, and subjected to FJC staining. The slides were first immersed in a solution containing 1% NaOH in 80% ethanol for 5 minutes. They were rinsed for 2 minutes in 70% ethanol and for 2 minutes in distilled water, then incubated in 0.06% potassium permanganate solution for 10 minutes. Following a water rinse for 2 minutes, slides were transferred to the FJC staining solution and stained for 10 minutes. The proper dilution was accomplished by first making a 0.01% stock solution of FJC dye (Chemicon, Temecula, Calif., USA) in distilled water and then adding 1 ml of the stock solution to 99 ml of 0.1% acetic acid. Slides were washed three times each for 1 minute and then air-dried on a slide warmer at 50° C. for 30 minutes. After clearing in xylene and coverslipping, sections were examined under an epifluorescence microscope.

4L;C* mice [6] = experiment: Lifespan (Kaplan-Meier survival) in 4L;C* nGD mouse model; type: in vivo; details: rapamycin 6 mg/kg i.p. every 2 days from 2 weeks of age, untreated 59 days, buffer 60 days
Excerpt: The 4L;C* mouse is a transgenic animal model that is viable and mimics neurological deficits analogous to subacute neuronopathic Gaucher disease (nGD). The 4L;C* mice used in this and other examples disclosed herein were generated as described in Sun et al., Hum Mol Genet. 2010 Mar. 15; 19(6): 1088-1097, the disclosure of which is incorporated herein in its entirety. In brief, saposin C deficient (C^−/−) mice were generated by introducing a Cys→Pro substitution in the saposin C region of prosaposin. […] Saposin C is an essential activator for GCase. GCase V394L (4L/4L) mice were generated by germ-line transmission of a missense point mutation in the GCase (GBA) locus encoding for V394L. Next, saposin C^−/− mice were cross-bred with point mutated GCase V394L homozygotes (4L/4L) to generate 4L/wt;C^−/+ mice. 4L;C* mice (4L/4L;C^−/−) were produced by intercrossing 4L/4L;C^+/− with 4L/4L;C^+/−. The strain background of 4L;C* was originally C57BL/6J/129SvEV and backcrossed into pure C57BL/6J strain for more than 12 generations.

CO[C@H]1C[C@@H]2CC[C@@H](C)[C@@](O)(O2)C(=O)C(=O)N2CCCC[C@H]2C(=O)O[C@H]([C@H](C)C[C@@H]2CC[C@@H](O)[C@H](OC)C2)CC(=O)[C@H](C)/C=C(\C)[C@@H](O)[C@@H](OC)C(=O)[C@H](C)C[C@H](C)/C=C/C=C/C=C/1C [rapamycin]
frequency of microglia (CD45intermediate CD11bhigh) (4L;C* mice [1]; buffer-treated 1.9 fold): 1.3 fold
percentage of total CD45+ cells in brain (4L;C* mice [1]; buffer-treated 2.2-): 1.4 fold
starting age for bodyweight to show significant difference from normal controls (4L;norm) (4L;C* mice [2]): 75 days
CCL2 mRNA expression (inflammatory mediators; Day 55, buffer-treated 16.6-fold): 9 fold
CCL5 mRNA expression (inflammatory mediators; Day 55, compared to normal littermates, buffer-treated 47-fold): 23 fold
Frequency of GFP+ cells among CD45+ (4L;C* nBMT mice): 2.87
Frequency of GFP+ cells among Lymphoid (4L;C* nBMT mice): 29.3
Frequency of GFP+ cells among Macrophage (4L;C* nBMT mice): 19.5
Frequency of GFP+ cells among Microglia (4L;C* nBMT mice): 1.56
Frequency of GFP+ cells among Myeloid (4L;C* nBMT mice): 17.4
Frequency of GFP+ cells among T Cell (4L;C* nBMT mice): 37.6
decrease of GFAP signal (4L;C* mice [3]): 36-74%
reduction of CD68+ area (4L;C* mice [4]; all brain regions except cerebellar DCN, Day 55): 53-62%
reduction of CD68 signals (4L;C* mice [4]; spinal cord): 56%
reduction of degenerating neuronal signals (FJC) (4L;C* mice [5]): 29-45%
median survival (4L;C* mice [6]): 82 days
